Assay results from patent publication US12679878B2, “CRF2 receptor agonists and their use in therapy” (SANOFI, priority 2020, dated 2026).
≈ marks a conversion by molar mass, not a printed value. Starred links: 1 amine or outer side, 2 acyl side, 3 side chain; linkers in the order of their positions; H or OH if unused. Non-standard residues stand in square brackets, D forms with d. Residues, ends and D or L forms follow the SMILES beside them. Groups on a side chain read outwards from the residue. *: point of attachment. γGlu = O=C(O)[C@H](CCC(=O)[*:2])N[*:1]; Palmitoyl = CCCCCCCCCCCCCCCC(=O)*; Aib = CC(C)(N)C(=O)O

What was measured:
CRF1R receptor = target: T1, CRF1R receptor (Homo sapiens, UniProt P34998); experiment: cAMP activity at anti-target CRF1R, CRF1R-overexpression CHO cell line (Example 9); format: cell-based; conditions: CRF1R-overexpression CHO cell line; for EC50: 0% HSA; for Emax: read-out: Emax (%)
T1 construct: host or cells: CHO-K1 clone 2
T1 sequence (P34998 24-415): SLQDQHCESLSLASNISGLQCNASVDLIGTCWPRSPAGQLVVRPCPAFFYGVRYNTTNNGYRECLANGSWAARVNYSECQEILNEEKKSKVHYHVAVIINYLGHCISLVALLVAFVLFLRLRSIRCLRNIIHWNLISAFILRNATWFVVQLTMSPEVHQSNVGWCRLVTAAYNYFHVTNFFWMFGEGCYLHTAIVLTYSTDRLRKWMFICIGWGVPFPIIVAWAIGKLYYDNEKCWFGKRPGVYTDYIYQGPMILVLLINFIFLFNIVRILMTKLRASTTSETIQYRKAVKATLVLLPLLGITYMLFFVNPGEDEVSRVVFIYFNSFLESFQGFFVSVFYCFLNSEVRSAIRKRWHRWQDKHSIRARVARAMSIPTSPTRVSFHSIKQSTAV
Outline: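 cAMP accumulation was read by HTRF after 30 min at room temperature of compound treatment. Cells were cryopreserved CHO cells overexpressing CRF1R, plated at 2000/well in IBMX (2 mM)-containing HBSS/HEPES buffer with 0 or 0.1% HSA. Activity was normalized to 1000 nM UCN2 as 100%.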

[1] = Solubility in buffer systems by UPLC-UV (Example 13); format: physicochemical
Experimental: Prior to performing the solubility measurements, the purity of the compounds was determined through UPLC/MS. […] Therefore, solutions from solid samples were prepared in a buffer system with a concentration of 10 mg/mL compound based on the previously determined % purity.
UPLC-UV was performed after 1 hour of gentle agitation from the supernatant, which was obtained after 15 minutes of centrifugation at 2500 RCF (relative centrifugal acceleration). The solubility was determined by the comparison of the UV peak area of a 2 μL-injection of a buffered sample diluted 1:10 with a standard curve of a reference compound with known concentration. The different UV extinction coefficients of sample and reference compound were calculated based on the different amino acid sequences and considered in the concentration calculation.

human CRF2α receptor = target: T2, human CRF2α receptor (Homo sapiens, UniProt Q13324); experiment: cAMP agonism at human CRF2 α receptor in TeloHEAC cells (Example 7); format: cell-based; conditions: cAMP HTRF, TeloHEAC cells stably expressing human CRF2 α, 0% HSA; read-out: EC50 [nM], 0% HSA
T2 construct: expressed in transfected cells; host or cells: TeloHEAC
T2 sequence (Q13324 1-411): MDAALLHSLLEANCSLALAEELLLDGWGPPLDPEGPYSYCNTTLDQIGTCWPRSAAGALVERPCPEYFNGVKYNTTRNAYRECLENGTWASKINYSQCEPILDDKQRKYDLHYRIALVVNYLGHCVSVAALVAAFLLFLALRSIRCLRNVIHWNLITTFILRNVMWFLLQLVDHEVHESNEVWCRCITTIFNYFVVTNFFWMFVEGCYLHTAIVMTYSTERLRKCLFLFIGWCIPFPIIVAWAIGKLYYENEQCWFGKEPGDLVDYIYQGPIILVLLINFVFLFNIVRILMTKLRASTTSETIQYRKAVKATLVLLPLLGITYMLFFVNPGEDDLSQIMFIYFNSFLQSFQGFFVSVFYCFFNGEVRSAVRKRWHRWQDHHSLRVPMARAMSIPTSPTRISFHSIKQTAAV
Outline: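 Percent activation was referenced to 1000 nM UCN2 (100%), and EC50 values taken as concentrations giving half of maximal response. The read-out was a homogeneous time-resolved fluorescence cAMP kit, fluorescence ratio 665/620 nm. Thawed cells (2000/well) saw compound for 30 min at RT in buffer with 2 mM IBMX and 0%/0.1% HSA.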

[2] = pH 7.4, Solubility in Buffer C [mg/ml]
[3] = pH 4.5, Solubility in Buffer A [mg/ml]
[4] = pH 4.5, Solubility in Buffer B [mg/ml]

EC50 (CRF1R receptor)	Emax (CRF1R receptor)	solubility at 1 h [1, 2]	EC50 (human CRF2α receptor)	solubility at 1 h [1, 3]	solubility at 1 h [1, 4]	Structure (SMILES)
> 1000 nM	10.2%	> 10000 µg/mL				CCCCCCCCCCCCCCCC(=O)N[C@@H](CCC(=O)NCCCC[C@H](NC(=O)[C@@H](NC(=O)[C@H](CCCCN)NC(=O)[C@@H](NC(=O)[C@@H]1CCCN1C(=O)[C@@H](NC(=O)[C@H](CC(=O)O)NC(=O)[C@H](CC(C)C)NC(=O)[C@H](CO)NC(=O)[C@H](CC(C)C)NC(=O)[C@@H](NC(=O)[C@@H](N)Cc1ccccc1)[C@@H](C)O)C(C)C)[C@@H](C)O)[C@@H](C)CC)C(=O)N[C@@H](CCC(N)=O)C(=O)N[C@@H](CCCCN)C(=O)N[C@@H](CC(C)C)C(=O)N[C@@H](CC(C)C)C(=O)N[C@@H](CCCCN)C(=O)N[C@@H](CCC(N)=O)C(=O)N[C@@H](CCC(=O)O)C(=O)N[C@@H](CCCCN)C(=O)N[C@@H](CCC(N)=O)C(=O)N[C@@H](CCCCN)C(=O)N[C@@H](CCCCN)C(=O)N[C@@H](CCC(N)=O)C(=O)N[C@@H](CCCNC(=N)N)C(=O)N[C@@H](CCC(N)=O)C(=O)N[C@@H](CCCCN)C(=O)N[C@@H](C)C(=O)N[C@@H](CCCCN)C(=O)N[C@H](C(=O)N[C@@H](CC(N)=O)C(=O)N[C@@H](CCCCN)C(=O)N[C@@H](CCC(N)=O)C(=O)N[C@H](C(=O)N[C@@H](CC(C)C)C(=O)N[C@@H](CCC(=O)O)C(=O)N[C@@H](CCC(N)=O)C(=O)N[C@H](C(N)=O)C(C)C)[C@@H](C)CC)[C@@H](C)O)C(=O)O [compound 10] (H-FTLSLDVPTKIK([γGlu-Palmitoyl])QKLLKQEKQKKQRQKAKTNKQILEQV-NH2)
> 1000 nM	14.1%	> 8700 µg/mL	0.18 nM	> 9100 µg/mL		CCCCCCCCCCCCCCCC(=O)N[C@@H](CCC(=O)NCCCC[C@H](NC(=O)[C@@H](NC(=O)[C@H](CCCCN)NC(=O)[C@@H](NC(=O)[C@@H]1CCCN1C(=O)[C@@H](NC(=O)[C@H](CC(=O)O)NC(=O)[C@H](CC(C)C)NC(=O)[C@H](CO)NC(=O)[C@H](CC(C)C)NC(=O)[C@@H](NC(=O)[C@@H](N)Cc1ccccc1)[C@@H](C)O)C(C)C)[C@@H](C)O)[C@@H](C)CC)C(=O)N[C@@H](CCC(N)=O)C(=O)N[C@@H](CCCCN)C(=O)N[C@@H](CC(C)C)C(=O)N[C@@H](CC(C)C)C(=O)N[C@@H](CCCCN)C(=O)N[C@@H](CCC(N)=O)C(=O)N[C@@H](CCC(=O)O)C(=O)N[C@@H](CCCCN)C(=O)N[C@@H](CCC(N)=O)C(=O)N[C@@H](CCCNC(=N)N)C(=O)N[C@@H](CCCCN)C(=O)N[C@@H](CCC(N)=O)C(=O)N[C@@H](CCCCN)C(=O)N[C@@H](CCC(N)=O)C(=O)N[C@@H](CCCCN)C(=O)N[C@@H](C)C(=O)N[C@@H](CCCCN)C(=O)N[C@H](C(=O)N[C@@H](CC(N)=O)C(=O)N[C@@H](C)C(=O)N[C@@H](CCCCN)C(=O)N[C@H](C(=O)N[C@@H](CC(C)C)C(=O)N[C@@H](C)C(=O)N[C@@H](CCCNC(=N)N)C(=O)N[C@H](C(N)=O)C(C)C)[C@@H](C)CC)[C@@H](C)O)C(=O)O [compound 14] (H-FTLSLDVPTKIK([γGlu-Palmitoyl])QKLLKQEKQRKQKQKAKTNAKILARV-NH2; N-terminus assumed)
	57.4%	5700 µg/mL (≈ 1150 µM)	0.01 nM	> 10200 µg/mL	> 10800 µg/mL	CCCCCCCCCCCCCCCC(=O)N[C@@H](CCC(=O)NCCCC[C@H](NC(=O)[C@H](CC(C)C)NC(=O)[C@H](CCCCN)NC(=O)[C@@H](NC(=O)[C@@H]1CCCN1C(=O)[C@H](NC(=O)[C@H](CC(=O)O)NC(=O)[C@H](CC(C)C)NC(=O)[C@H](CO)NC(=O)[C@H](CC(C)C)NC(=O)[C@@H](NC(=O)[C@@H](N)[C@@H](C)CC)C(C)C)C(C)C)[C@@H](C)O)C(=O)N[C@@H](CCC(N)=O)C(=O)N[C@@H](CCCCN)C(=O)N[C@@H](CC(C)C)C(=O)N[C@@H](CC(C)C)C(=O)N[C@@H](CCCCN)C(=O)N[C@@H](CCC(N)=O)C(=O)N[C@@H](CCC(=O)O)C(=O)N[C@@H](CCCNC(=N)N)C(=O)N[C@@H](CCC(N)=O)C(=O)N[C@@H](CCCNC(=N)N)C(=O)NC(C)(C)C(=O)N[C@@H](CCC(=O)O)C(=O)N[C@@H](CCCNC(=N)N)C(=O)N[C@@H](CCC(=O)O)C(=O)N[C@@H](CCC(N)=O)C(=O)N[C@@H](C)C(=O)N[C@@H](CCC(=O)O)C(=O)N[C@@H](CCCCN)C(=O)N[C@@H](CC(N)=O)C(=O)N[C@@H](CCCCN)C(=O)N[C@@H](CCCNC(=N)N)C(=O)N[C@H](C(=O)N[C@@H](CC(C)C)C(=O)N[C@@H](CCC(=O)O)C(=O)N[C@@H](CCCNC(=N)N)C(=O)N[C@H](C(N)=O)C(C)C)[C@@H](C)CC)C(=O)O [compound 19] (H-IVLSLD[dV]PTKLK([γGlu-Palmitoyl])QKLLKQERQR[Aib]EREQAEKNKRILERV-NH2; N-terminus assumed)
		6800 µg/mL (≈ 1370 µM)	0.01 nM	> 9500 µg/mL	> 9100 µg/mL	CCCCCCCCCCCCCCCC(=O)N[C@@H](CCC(=O)NCCCC[C@H](NC(=O)[C@H](CC(C)C)NC(=O)[C@H](CCCCN)NC(=O)[C@@H](NC(=O)[C@@H]1CCCN1C(=O)[C@H](NC(=O)[C@H](CC(=O)O)NC(=O)[C@H](CC(C)C)NC(=O)[C@H](CO)NC(=O)[C@H](CC(C)C)NC(=O)[C@@H](NC(=O)[C@@H](N)[C@@H](C)CC)C(C)C)C(C)C)[C@@H](C)O)C(=O)N[C@@H](CCC(N)=O)C(=O)N[C@@H](CCCCN)C(=O)N[C@@H](CC(C)C)C(=O)N[C@@H](CC(C)C)C(=O)N[C@@H](CCCCN)C(=O)N[C@@H](CCC(N)=O)C(=O)N[C@@H](CCC(=O)O)C(=O)N[C@@H](CCCNC(=N)N)C(=O)N[C@@H](CCC(N)=O)C(=O)N[C@@H](CCCNC(=N)N)C(=O)N[C@@H](CCCCN)C(=O)NC(C)(C)C(=O)N[C@@H](CCCNC(=N)N)C(=O)N[C@@H](CCC(=O)O)C(=O)N[C@@H](CCC(N)=O)C(=O)N[C@@H](C)C(=O)N[C@@H](CCC(=O)O)C(=O)N[C@@H](CCCCN)C(=O)N[C@@H](CC(N)=O)C(=O)N[C@@H](CCCCN)C(=O)N[C@@H](CCCNC(=N)N)C(=O)N[C@H](C(=O)N[C@@H](CC(C)C)C(=O)N[C@@H](CCC(=O)O)C(=O)N[C@@H](CCCNC(=N)N)C(=O)N[C@H](C(N)=O)C(C)C)[C@@H](C)CC)C(=O)O [compound 20] (H-IVLSLD[dV]PTKLK([γGlu-Palmitoyl])QKLLKQERQRK[Aib]REQAEKNKRILERV-NH2; N-terminus assumed)
		9100 µg/mL (≈ 1830 µM)	0.02 nM			CCCCCCCCCCCCCCCC(=O)N[C@@H](CCC(=O)NCCCC[C@H](NC(=O)[C@H](CC(C)C)NC(=O)[C@H](CCCCN)NC(=O)[C@@H](NC(=O)[C@@H]1CCCN1C(=O)[C@H](NC(=O)[C@H](CC(=O)O)NC(=O)[C@H](CC(C)C)NC(=O)[C@H](CO)NC(=O)[C@H](CC(C)C)NC(=O)[C@@H](NC(=O)[C@@H](N)[C@@H](C)CC)C(C)C)C(C)C)[C@@H](C)O)C(=O)N[C@@H](CCC(N)=O)C(=O)N[C@@H](CCCCN)C(=O)N[C@@H](CC(C)C)C(=O)N[C@@H](CC(C)C)C(=O)N[C@@H](CCCCN)C(=O)N[C@@H](CCC(N)=O)C(=O)N[C@@H](CCC(=O)O)C(=O)N[C@@H](CCCNC(=N)N)C(=O)N[C@@H](CCC(N)=O)C(=O)N[C@@H](CCCNC(=N)N)C(=O)N[C@@H](CCCCN)C(=O)N[C@@H](CCC(=O)O)C(=O)N[C@@H](CCCNC(=N)N)C(=O)NC(C)(C)C(=O)N[C@@H](CCC(N)=O)C(=O)N[C@@H](C)C(=O)N[C@@H](CCC(=O)O)C(=O)N[C@@H](CCCCN)C(=O)N[C@@H](CC(N)=O)C(=O)N[C@@H](CCCCN)C(=O)N[C@@H](CCCNC(=N)N)C(=O)N[C@H](C(=O)N[C@@H](CC(C)C)C(=O)N[C@@H](CCC(=O)O)C(=O)N[C@@H](CCCNC(=N)N)C(=O)N[C@H](C(N)=O)C(C)C)[C@@H](C)CC)C(=O)O [compound 23] (H-IVLSLD[dV]PTKLK([γGlu-Palmitoyl])QKLLKQERQRKER[Aib]QAEKNKRILERV-NH2; N-terminus assumed)
